From patent publication US11840495B2, “Compositions and methods related to di-substituted bicyclo[2.2.1] heptanamine-containing compounds” (The Broad Institute, Inc., priority 2020, dated 2023)
Counter-ions that a name gives are not always drawn. Like-named read-outs stand apart in the source and are kept apart here.

Key:
MUC1-fs = assay: Immunofluorescence imaging of MUC1-fs in P cells (Example 2); format: cell-based; details: for EC50: 48 hr incubation, MUC1-fs; for Emax / ECMax (%): 48 hr; for Emax: DMSO = 0, JQ1 = −100% activity, in %; for ECMax (%): DMSO = 0, JQ1 (250 nM) = −100% activity
Experimental: (§1) P cells were seeded 24 hr prior to compound treatment at a density of 12,000 cells/well in 384 well Cell Carrier Ultra plates (6057308, Perkin Elmer), pre-coated with 0.25 mg/mL Synthemax II SC Substrate (3535, Corning). Compounds were used at 5 doses (35, 3.5, 0.35, 0.035 and 0.0035 μM) for the primary screen and 10 doses (16, 5.6, 1.8, 0.6, 0.21, 0.07, 0.02, 0.008, 0.002 and 0.0008 μM) for the following screens. The compounds, in two replicates, were transferred from compound source plates to the cell plates using the HighRes Pin Tool. DMSO was used as a negative control and JQ1 (250 nM) (a bromodomain inhibitor) was chosen as a positive control, based on earlier studies showing its potent effect on reducing total MUC1 mRNA levels (data not shown). After 48 hr incubation, cells were fixed for 20 min in 4% PFA (Electron Microscopy Sciences) in PBS, washed twice, then permeabilized (10 min) with 0.5% Triton-X100 (X100-100ML, Sigma-Aldrich) in PBS and washed once more. Cells were blocked for 10 min at RT with Blocking solution (100 mM Tris HCL pH8; 150 mM NaCL; 5 g/L Blocking Reagent [11096176001, Roche]), then incubated 90 min at RT with one of the following primary antibodies in Roche Blocking solution: 1:500, monoclonal Fab-A-VSH anti-MUC1-fs, AbD22655.2, Bio-Rad; 1:2000, monoclonal mouse anti-MUC1 (214D4), 05-652-KC, Millipore; 1:1000, monoclonal, Rabbit anti-GM130 (D6B1) XP, 12480, Cell signaling technology. The primary antibody cocktail was incubated at RT for 1.5 hr, followed by four PBS wash cycles. The secondary antibody cocktail contained four components that were all prepared at a 1:1000 dilution in the Roche blocking solution and consisted of Alexa Fluor® 488-conjugated AffiniPure F(ab′)2 Fragment Goat anti-Human IgG, 109-546-097, Jackson Immunoresearch; Alexa Fluor® 647-conjugated Goat anti-Rabbit IgG, A-21246, Thermo Fisher Scientific®; Alexa Fluor® 546 Goat anti-mouse IgG, A-21123, Thermo Fisher Scientific® and Hoechst 33342 stain (62249, Thermo Fisher Scientific®). The secondary antibody cocktail was incubated at RT for 45 min, followed by four PBS wash cycles. Finally, plates were sealed with a Plate Loc plate and stored in Liconic incubator at 10° C. until imaging. Following image analysis, three parameters were selected, i) MUC1-fs and ii) MUC1-wt total cytoplasm intensity (averaged per cell) and iii) cell number as was detected by Hoechst 33342 stained nuclei. The levels of MUC1-fs and MUC1-wt found following DMSO and JQ1 were defined as 0 and −100% activity, respectively. The values obtained for all compounds were normalized accordingly. Cell number was normalized to DMSO control.

MUC1-wt = assay: Immunofluorescence imaging of MUC1-wt in P cells (Example 2); format: cell-based; details: for EC50: 48 hr incubation, MUC1-wt; for WT EMax / WT ECMax (%): 48 hr; for WT EMax: DMSO = 0, JQ1 = −100% activity, in %; for WT ECMax (%): DMSO = 0, JQ1 (250 nM) = −100% activity
Experimental: as §1

Compound | EC50 (MUC1-fs; read-out: EC50) [µM] | Emax (MUC1-fs) | EC50 (MUC1-wt; read-out: WT EC50) [µM] | WT EMax (MUC1-wt) | EC50 (MUC1-fs; read-out: EC50(Spot)) [µM] | ECMax (%) (MUC1-fs) | EC50 (MUC1-wt; read-out: WT EC50 (Cytoplasm)) [µM] | WT ECMax (%) (MUC1-wt)
Cl.NC1C2CCC(C2)C12CCOCC2 (racemic) [Compound 235, rac-tetrahydrospiro[bicyclo[2.2.1]heptane-2,4′-pyran]-3-amine hydrochloride] | 1.77 | −88.6 | > 16 | −6.6 |  |  |  | 
Cl.N[C@H]1[C@@H]2CC[C@@H](C2)C12CCCC(C(=O)N1CCOCC1)C2 (stereo partly drawn) [Compound 226-1, ((1S,3S,4R)-3-aminospiro[bicyclo[2.2.1]heptane-2,1′-cyclohexan]-3′-yl)(morpholino)methanone hydrochloride] | > 16 | −32.0 | > 16 | −24.5 |  |  |  | 
C[C@@H]1CCC[C@@]2(C1)[C@@H]1CC[C@@H](C1)[C@@H]2N.Cl [Compound 214-P2-B] |  |  |  |  | 15.1 | −29.12 | > 32 | −4.96
CCC1(CC)[C@H]2CC[C@H](C2)[C@H]1N.Cl (racemic) [Compound 204] |  |  |  |  | 0.01 | −85.02 | 1.01 | 190.26
Cl.NC1(c2ccccc2)C2CCC(C2)C12CCCC2 (racemic) [Compound 250, rac-3-phenylspiro[bicyclo[2.2.1]heptane-2,1′-cyclopentan]-3-amine hydrochloride] | 7.83 | −86.3 | > 16 | 8.2 |  |  |  | 
Cl.N[C@@H]1[C@@H]2CC[C@@H](C2)C12CCCC(C(=O)N1CCOCC1)C2 (stereo partly drawn) [Compound 226, ((1S,3R,4R)-3-aminospiro[bicyclo[2.2.1]heptane-2,1′-cyclohexan]-3′-yl)(morpholino)methanone hydrochloride] | > 16 | 7.8 | > 16 | 9.0 |  |  |  | 
C[C@H]1CC[C@]2(C1)[C@H]1CC[C@H](C1)[C@H]2N.Cl [Compound 211-P1-B] |  |  |  |  | 5 | −61.55 | > 32 | 9.31
CC[C@]1(Cc2ccccc2)[C@H]2CC[C@H](C2)[C@H]1N.Cl [Compound 219-P1, (1R,2R,3S,4S)-3-benzyl-3-ethylbicyclo[2.2.1]heptan-2-amine hydrochloride] | > 16 | 5.6 | > 16 | 12.4 |  |  |  | 
Cl.N[C@H]1[C@@H]2CC[C@@H](C2)C12CCCC(C(=O)N1CCCCC1)C2 (stereo partly drawn) [Compound 227-1, ((1S,3S,4R)-3-aminospiro[bicyclo[2.2.1]heptane-2,1′-cyclohexan]-3′-yl)(piperidin-1-yl)methanone hydrochloride] | 3.6 | −79.5 | > 16 | −7.0 |  |  |  | 
CC1(N)C2CCC(C2)C12CCCC2 (racemic) [Compound 233, rac-3-methylspiro[bicyclo[2.2.1]heptane-2,1′-cyclopentan]-3-amine] | 0.077 | −86.9 | > 16 | 21.8 |  |  |  | 
CC1(C)[C@@H]2CC[C@@H](C2)[C@@H]1N (single isomer, unassigned) [Compound 201-P2, hydrochloride] |  |  |  |  | 0.47 | −85.5 | 11.9 | 68.51
(1R,3S,4S)-spiro[bicyclo[2.2.1]heptane-3,1′-cyclopentan]-2-amine hydrochloride [Compound 209-P1] |  |  |  |  | 0.04 | −70.66 | > 5.6 | −210
CC(=O)OC1CC2(CC1OC(C)=O)C1CCC(C1)C2N.Cl (racemic) [Compound 230, rac-3-aminospiro[bicyclo[2.2.1]heptane-2,1′-cyclopentane]-3′,4′-diyl diacetate hydrochloride] | > 16 | −12.8 | > 16 | −16.1 |  |  |  | 
C[C@@H]1CC[C@]2(C1)[C@@H]1CC[C@@H](C1)[C@@H]2N.Cl [Compound 210-P2-A] |  |  |  |  | 1.04 | −62.63 | > 32 | −8.9
C[C@H]1CC[C@]2(C1)[C@@H]1CC[C@@H](C1)[C@@H]2N.Cl [Compound 210-P2-B] |  |  |  |  | 0.1 | −66.02 | > 16 | 30.21
Cl.N[C@@H]1[C@@H]2CC[C@@H](C2)[C@]12CCC[C@H](CO)C2 [Compound 220-P1, ((1S,2R,3R,3′S,4R)-3-aminospiro[bicyclo[2.2.1]heptane-2,1′-cyclohexan]-3′-yl)methanol hydrochloride] | > 16 | 6.0 |  |  |  |  |  | 
Cl.N[C@@H]1[C@@H]2CC[C@@H](C2)C12CCCC(C(=O)N1CCCCC1)C2 (stereo partly drawn) [Compound 227, ((1S,3R,4R)-3-aminospiro[bicyclo[2.2.1]heptane-2,1′-cyclohexan]-3′-yl)(piperidin-1-yl)methanone hydrochloride] | > 16 | −39.9 | > 16 | 4.6 |  |  |  | 
NC1C2CCC(C2)C12CCCCC2 [Compound 212-P1, (1R,3S,4S)-spiro[bicyclo[2.2.1]heptane-3,1′-cyclohexan]-2-amine] |  |  |  |  | 1.57 | −65.18 | 3.01 | 110.73
Cl.NC(=O)C1CCCC2(C1)C1CCC(C1)C2N (racemic) [Compound 224, rac-3-aminospiro[bicyclo[2.2.1]heptane-2,1′-cyclohexane]-3′-carboxamide hydrochloride] | > 16 | −17.0 | > 16 | −24.4 |  |  |  | 
Cl.N[C@@H]1[C@@H]2CC[C@@H](C2)C12CCC2 (racemic) [Compound 208, rac-spiro[bicyclo[2.2.1]heptane-3,1′-cyclobutan]-2-endo-amine hydrochloride] |  |  |  |  | 0.13 | −65.35 | > 5.6 | ~125
CC[C@]1(Cc2ccccc2)[C@@H]2CC[C@@H](C2)[C@@H]1N [Compound 222-P2, (1S,2S,3S,4R)-3-benzyl-3-ethylbicyclo[2.2.1]heptan-2-amine] | > 16 | 19.0 |  |  |  |  |  | 
CC[C@@]1(Cc2ccccc2)[C@H]2CC[C@H](C2)[C@H]1N [Compound 222-P1, (1R,2R,3R,4S)-3-benzyl-3-ethylbicyclo[2.2.1]heptan-2-amine] | > 16 | −17.9 |  |  |  |  |  | 
Cl.N[C@@H]1[C@@H]2CC[C@@H](C2)[C@]12CCC[C@@H](CO)C2 [Compound 220-P2, ((1S,2R,3R,3′R,4R)-3-aminospiro[bicyclo[2.2.1]heptane-2,1′-cyclohexan]-3′-yl)methanol hydrochloride] | > 16 | 9.4 |  |  |  |  |  | 
